Experiments:
Estradiol E2 = Estradiol E2 level in blood (serum CLIA) after repeated sc PEP-1; format: in vivo, SD rats
Method: PEP-1 (peptide of SEQ ID NO: 1), lyophilized white powder, obtained according to the method mentioned in example 1 was dissolved in 0.9% of saline, considering the correction factor of PEP-1 (purity: 94.13%, content: 92.36%, correction factor: 1.15). 50 mg/mL stock solution was further diluted into 20 mg/mL, 2 mg/mL, and 1 mg/mL with 0.9% saline, and stored at 4° C. for a week until the use.
The purpose of this example is to confirm the change of sexual hormones in blood from SD rats with 7 days repeated daily administration of SEQ ID NO: 1 peptide, PEP-1. This experiment followed the Ethics Regulation of Animal Test by KAMSI Inc. (Korea Animal Medical Science Institute). In addition, this experiment, Non-GLP experiment, referred to the MFDS (Ministry of Food and Drug Safety) notification; Agent 2013-40 (5th April 2013), Principles of Good Laboratory Practice (1997).
SPF Rats (Crlj:CD(SD)) were purchased from ORIENTBio Inc. (Mokdong-ri, Buk-myeon, Gapyeong-gun, Gyeonggi-do, Republic of Korea). 75 male (6.5 weeks old and 190˜210 g) and 75 female (6.5 weeks old and 160˜180 g) rats were monitored for 4 days, and 64 of male and female rats (each) were selected for the experiment. Raising condition is as follows; 23±3° C. of temperature, […] of relative humidity, 10˜20 times/hr of number of air changes, 12 hours (8 a.m.˜8 p.m.) of lighting with 150˜300 Lux of intensity.
64 male and female […] (mentioned above) were divided into 8 groups. Administration regimen, for example, drugs, routes, dosages, and volumes were as follows:
The detailed administration regimen is as follows; once a day, twice a day and twice a week in each experimental group. Injection initiated at 10 a.m. every day, and each rat was injected at one minute intervals. Rats in Group 9, 10, 13 and 14 were injected twice a week. Administration of high dose test agent preceded that of low dose. The volume of injection was calculated using recently measured weight of rats, and it was 5 mL/kg. Subcutaneous injection was performed as follows; assistant tilted the back of rat upward, and experimenter sterilized the back of rat with 70% alcohol, followed by subcutaneous injection of test agent with 26 G syringe.
1.4 mL of blood sample (0.7 mL of serum) was collected after measurement of weight (Day 0). Next day (1 Day), 1.4 mL of blood sample (0.7 mL of serum) was collected twice after injection of test agent (4 hrs and 8 hrs after administration of test agent). […]
A CLIA (Chemi-Luminescence Immune Assay) Kit was used to analyze Testosterone, Estradiol E2, FSH (Follicle stimulating hormone), and LH (Luteinizing hormone). […]
Estradiol E2 was analyzed using the samples prepared from example 2. […] As mentioned in example 2, CLIA (Chemi-luminescence immune assay) Kit was used, following the manufacture's protocol. […]

RWPE-1 = assay: Cell proliferation (CCK-8) in prostate epithelial cell line; format: cell-based
Method: When testosterone is injected into the body, testosterone becomes dihydrotestosterone (DHT) due to 5α-reductase, which stimulates the proliferation of prostate cells and induces benign prostatatic hyperplasia (BPH). Based on these facts, a PEP-1 (GV1001) injection experiment was performed for the inhibition of proliferation of prostatic cells in the following manner: The cell lines were mesenchymal cell lines (WPMY-1) and epithelial cell lines (RWPE-1) of prostates obtained from BPH animal models. […] Observation of changes in the proliferation was performed by suctioning a culture medium, adding 10 μL of CCK-8 solution to each well, and measuring an optical density at 450 nm for 1 hour to about 4 hours.

EARPALLTSRLRFIPK (listed as Homo sapiens) [PEP-1, hormone secretion modulator / GnRH analog]
Estradiol E2 level (Estradiol E2; female group, Day 1, all groups (PEP-1 and/or vehicle), baseline 20-50 pg/mL): 16 to 30 pg/mL
Effect on Estradiol E2 level (Estradiol E2; female group, level recovered from Day 3-4): inhibited the Estradiol E2 level in the beginning
Effect on Estradiol E2 level (Estradiol E2; male rat): does not have effect on Estradiol E2 level
Estradiol E2 level (Estradiol E2; male rat, initial level remained same until Day 7): 15 to 20 pg/mL
Cell proliferation (optical density at 450 nm) versus untreated cells (RWPE-1; RWPE-1, 100 and 200 μM GV1001, no DHT): did not show a substantial difference in optical densities
Inhibition of DHT-induced cell proliferation (RWPE-1; RWPE-1, 100 and 200 μM GV1001 with 25 nM DHT): substantial inhibition effects on proliferation
